# According to ChEMBL document CHEMBL1201862, “PubChem BioAssay data set” (2004):
# The source made the active and inactive calls.
# Experiments:
# [1] = target: T1, Mu-type opioid receptor (Homo sapiens, UniProt P35372); test: HTS Image-Based Screen for Agonists of the MOR Receptor. [Related pubchem assays (depositor defined):AID1777, AID1785, AID1786, AID2133]; type: functional
# [2] = target: T2, Delta-type opioid receptor (Homo sapiens, UniProt P41143); test: HTS Image-Based Screen for Agonists of the DOR Receptor. [Related pubchem assays (depositor defined):AID1777, AID1786, AID2133]; type: functional
# [3] = target: T3, Beta-galactosidase (Escherichia coli, UniProt Q8VNN2); type: functional
# [4] = Counterscreen for activators of the function of SWI/SNF related, matrix associated, actin dependent regulator of chromatin, subfamily a, member 2 (SMARCA2, BRM): Luminescence-based cell-based high throughput dose response assay to identify non-selective compounds using the VP16 reporter assay.; type: functional
# [5] = target: SWI/SNF-related matrix-associated actin-dependent regulator of chromatin subfamily A member 2 (Homo sapiens, UniProt P51531); test: Luminescence-based cell-based high throughput dose response assay to identify activators of the function of SWI/SNF related, matrix associated, actin dependent regulator of chromatin, subfamily a, member 2 (SMARCA2, BRM).; type: functional
# [6] = target: T2, Delta-type opioid receptor; test: HTS Image-Based Screen for Antagonists of the DOR Receptor. [Related pubchem assays (depositor defined):AID1777, AID1785, AID1786, AID2133]; type: functional
# [7] = target: T4, Kappa-type opioid receptor (Homo sapiens, UniProt P41145); type: functional
# [8] = target: T4, Kappa-type opioid receptor; type: functional; remark: listed apart in the source
# [9] = human group III sPLA2 inhibitors, dose response, biochemical, QFRET, IC50 (AID 743457);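 further: green fluorescence rise as the enzyme cleaves BODIPY PC-A2 in liposomes; potency for inhibition of the enzyme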
# [10] = target: T1, Mu-type opioid receptor; type: functional, cell-based
# [11] = target: 5-hydroxytryptamine receptor 2A (Mus musculus, UniProt P35363); type: functional, cell-based;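 further: CHO-K1 cells with tagged receptor and beta-arrestin; agonist potency measured as compound-induced activation of the receptor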
# [12] = target: T3, Beta-galactosidase; test: Dose response counterscreen for EBI2 assay utilizing the enzyme, b-galactosidase.; type: functional
# [13] = target: Melanocortin receptor 4 (Homo sapiens, UniProt P32245); type: functional, cell-based;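 further: Cell-based assay with luminescence read-out, confirmatory dose-response testing for agonist activity of biased ligands at MC4R; human U2OS cells with tagged receptor and beta-arrestin; potency of agonists that increase receptor coupling to beta-arrestin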
# [14] = target: Nuclear receptor subfamily 5 group A member 2 (Homo sapiens, UniProt O00482); type: functional, cell-based;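 further: HEK293T cells transfected with LRH-1 and a StAR promoter luciferase reporter; potency for inhibitors that lower LRH-1 driven reporter light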
# [15] = Luminescence Cell-Based Dose Confirmation HTS to Identify Inhibitors of Platelet Dense Granule Release. [Related pubchem assays: 1663 (Primary HTS), 1678 (Summary of Project)]; type: functional
# [16] = StAR promoter reporter inhibition counter-screen, dose response, counter-screen for LRH-1 inverse agonist project, cell-based, luminescence, luciferase reporter (AID 651969); type: functional
# [17] = target: Luciferin 4-monooxygenase (Photinus pyralis, UniProt P08659); test: firefly luciferase enzyme inhibitors, dose response, biochemical, luminescence (AID 1891)
# [18] = target: Steroidogenic factor 1 (Homo sapiens, UniProt Q13285); test: Counterscreen for inverse agonists of the liver receptor homolog-1 (LRH-1; NR5A2): Luminescence-based cell-based high throughput dose response assay to identify inverse agonists of the Steroidogenic Factor 1 Nuclear Receptor (SF1; NR5A1).; type: functional
# [19] = target: fMet-Leu-Phe receptor (Homo sapiens, UniProt P21462); test: FPR ligands, dose response (AID 519); type: functional
# [20] = target: Cytochrome P450 3A4 (Homo sapiens, UniProt P08684);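 further: CYP3A4 tested as one member of a cytochrome P450 panel screen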
# [21] = target: Fructose-bisphosphate aldolase (Mycobacterium tuberculosis, UniProt P9WQA3); test: Fluorescence-based biochemical high throughput dose response assay for inhibitors of the fructose-bisphosphate aldolase (FBA) of M. tuberculosis.; type: functional
# [22] = target: T5, Trace amine-associated receptor 1 (Homo sapiens, UniProt Q96RJ0); test: Counterscreen for agonists of the human trace amine associated receptor 1 (hTAAR1): Fluorescence-based cell-based high throughput dose response assay to identify hTAAR1 agonist that also desensitize TAAR1 receptor response.; type: functional
# T5 sequence (Q96RJ0 whole entry): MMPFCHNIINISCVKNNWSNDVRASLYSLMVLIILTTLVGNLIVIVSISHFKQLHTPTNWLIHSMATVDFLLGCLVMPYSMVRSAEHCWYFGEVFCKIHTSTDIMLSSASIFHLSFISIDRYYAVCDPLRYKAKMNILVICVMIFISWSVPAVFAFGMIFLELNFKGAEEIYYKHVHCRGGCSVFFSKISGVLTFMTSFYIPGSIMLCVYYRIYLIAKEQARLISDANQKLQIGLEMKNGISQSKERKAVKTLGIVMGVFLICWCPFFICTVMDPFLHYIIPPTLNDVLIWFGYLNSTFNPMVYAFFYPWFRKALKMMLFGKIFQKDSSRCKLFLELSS
# [23] = target: T5, Trace amine-associated receptor 1; test: Fluorescence-based cell-based high throughput dose response assay to identify agonists of the human trace amine associated receptor 1 (TAAR1).; type: functional
# [24] = cells; type: functional, cell-based
# [25] = cells; type: functional, cell-based; remark: listed apart in the source
# [26] = cells; type: functional, cell-based; remark: listed apart in the source
# [27] = target: Nuclear receptor subfamily 0 group B member 1 (Homo sapiens, UniProt P51843); type: functional, cell-based;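 further: HEK293T cells transfected with SF-1 and DAX-1 plus StAR promoter luciferase reporter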
# Steroidogenic factor 1, sequence (Q13285 whole entry): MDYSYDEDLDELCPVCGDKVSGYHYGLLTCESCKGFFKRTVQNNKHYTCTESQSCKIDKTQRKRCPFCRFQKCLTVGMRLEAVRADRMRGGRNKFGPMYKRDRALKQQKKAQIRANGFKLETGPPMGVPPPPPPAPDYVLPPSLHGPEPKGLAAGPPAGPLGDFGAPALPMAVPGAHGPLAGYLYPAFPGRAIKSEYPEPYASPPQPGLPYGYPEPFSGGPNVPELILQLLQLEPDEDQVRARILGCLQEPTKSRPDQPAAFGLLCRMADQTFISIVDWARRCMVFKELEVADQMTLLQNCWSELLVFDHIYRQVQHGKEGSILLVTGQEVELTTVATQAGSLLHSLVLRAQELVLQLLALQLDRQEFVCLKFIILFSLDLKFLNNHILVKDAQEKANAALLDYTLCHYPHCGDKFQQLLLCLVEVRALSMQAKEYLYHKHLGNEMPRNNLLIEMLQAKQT
# T2 sequence (P41143 whole entry): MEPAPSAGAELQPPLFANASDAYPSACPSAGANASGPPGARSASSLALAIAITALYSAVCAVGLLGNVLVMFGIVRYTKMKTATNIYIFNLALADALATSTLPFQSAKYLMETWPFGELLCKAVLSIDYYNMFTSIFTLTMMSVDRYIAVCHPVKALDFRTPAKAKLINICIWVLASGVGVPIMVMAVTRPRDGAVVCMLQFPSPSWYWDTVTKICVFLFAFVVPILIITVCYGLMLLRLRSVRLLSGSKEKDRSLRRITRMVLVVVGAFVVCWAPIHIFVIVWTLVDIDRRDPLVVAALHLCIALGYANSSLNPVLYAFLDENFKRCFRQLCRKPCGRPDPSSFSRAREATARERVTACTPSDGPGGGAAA
# T3 sequence (Q8VNN2 whole entry): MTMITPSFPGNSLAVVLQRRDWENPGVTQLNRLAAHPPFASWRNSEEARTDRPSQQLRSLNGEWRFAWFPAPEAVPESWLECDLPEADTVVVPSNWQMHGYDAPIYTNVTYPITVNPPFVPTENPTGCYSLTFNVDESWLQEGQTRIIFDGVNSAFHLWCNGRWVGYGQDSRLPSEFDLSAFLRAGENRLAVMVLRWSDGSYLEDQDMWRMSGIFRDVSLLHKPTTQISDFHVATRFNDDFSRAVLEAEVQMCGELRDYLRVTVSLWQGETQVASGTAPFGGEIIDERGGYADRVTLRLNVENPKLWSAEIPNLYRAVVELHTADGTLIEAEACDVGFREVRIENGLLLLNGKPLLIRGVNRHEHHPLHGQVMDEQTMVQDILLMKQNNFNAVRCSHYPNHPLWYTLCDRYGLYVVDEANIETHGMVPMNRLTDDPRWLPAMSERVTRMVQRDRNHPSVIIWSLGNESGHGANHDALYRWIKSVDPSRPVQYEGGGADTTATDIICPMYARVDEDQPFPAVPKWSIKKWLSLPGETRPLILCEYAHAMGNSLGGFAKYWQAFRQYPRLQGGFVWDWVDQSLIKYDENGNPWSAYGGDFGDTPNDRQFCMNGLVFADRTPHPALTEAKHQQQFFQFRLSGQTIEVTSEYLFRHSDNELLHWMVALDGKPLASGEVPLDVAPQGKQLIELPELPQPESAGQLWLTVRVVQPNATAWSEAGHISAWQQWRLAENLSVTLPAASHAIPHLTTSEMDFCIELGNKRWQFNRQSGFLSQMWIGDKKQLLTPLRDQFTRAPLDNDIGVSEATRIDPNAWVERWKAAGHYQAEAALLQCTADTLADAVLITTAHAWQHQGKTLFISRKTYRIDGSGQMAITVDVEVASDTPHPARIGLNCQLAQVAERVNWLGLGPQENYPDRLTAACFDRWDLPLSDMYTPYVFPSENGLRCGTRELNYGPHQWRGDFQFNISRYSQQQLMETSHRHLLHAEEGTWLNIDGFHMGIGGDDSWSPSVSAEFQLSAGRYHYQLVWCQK
# T1 sequence (P35372 whole entry): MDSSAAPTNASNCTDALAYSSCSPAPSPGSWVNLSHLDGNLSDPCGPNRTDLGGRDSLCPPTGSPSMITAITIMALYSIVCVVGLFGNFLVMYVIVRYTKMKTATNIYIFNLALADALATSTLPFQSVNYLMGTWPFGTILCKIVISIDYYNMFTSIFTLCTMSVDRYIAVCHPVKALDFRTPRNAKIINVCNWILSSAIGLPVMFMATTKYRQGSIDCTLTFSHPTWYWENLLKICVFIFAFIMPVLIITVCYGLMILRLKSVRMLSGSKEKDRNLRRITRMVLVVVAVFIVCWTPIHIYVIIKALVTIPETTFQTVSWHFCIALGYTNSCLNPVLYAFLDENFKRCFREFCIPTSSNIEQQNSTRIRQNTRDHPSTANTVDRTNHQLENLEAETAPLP
# Nuclear receptor subfamily 5 group A member 2, sequence (O00482 whole entry): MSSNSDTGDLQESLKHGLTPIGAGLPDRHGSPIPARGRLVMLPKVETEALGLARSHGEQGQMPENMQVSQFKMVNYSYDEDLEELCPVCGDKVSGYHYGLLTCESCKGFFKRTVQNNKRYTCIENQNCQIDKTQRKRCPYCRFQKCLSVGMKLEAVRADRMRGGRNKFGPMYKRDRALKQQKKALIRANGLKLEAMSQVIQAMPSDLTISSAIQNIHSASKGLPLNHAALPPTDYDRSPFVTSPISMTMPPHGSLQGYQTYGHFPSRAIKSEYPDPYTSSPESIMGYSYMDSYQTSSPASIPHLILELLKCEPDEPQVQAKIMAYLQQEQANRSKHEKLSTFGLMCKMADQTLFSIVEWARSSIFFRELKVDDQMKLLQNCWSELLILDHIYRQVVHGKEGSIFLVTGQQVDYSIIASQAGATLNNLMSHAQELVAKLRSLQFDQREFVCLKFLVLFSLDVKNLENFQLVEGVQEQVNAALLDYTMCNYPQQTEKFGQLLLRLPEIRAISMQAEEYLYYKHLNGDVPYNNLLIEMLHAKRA
# T4 sequence (P41145 whole entry): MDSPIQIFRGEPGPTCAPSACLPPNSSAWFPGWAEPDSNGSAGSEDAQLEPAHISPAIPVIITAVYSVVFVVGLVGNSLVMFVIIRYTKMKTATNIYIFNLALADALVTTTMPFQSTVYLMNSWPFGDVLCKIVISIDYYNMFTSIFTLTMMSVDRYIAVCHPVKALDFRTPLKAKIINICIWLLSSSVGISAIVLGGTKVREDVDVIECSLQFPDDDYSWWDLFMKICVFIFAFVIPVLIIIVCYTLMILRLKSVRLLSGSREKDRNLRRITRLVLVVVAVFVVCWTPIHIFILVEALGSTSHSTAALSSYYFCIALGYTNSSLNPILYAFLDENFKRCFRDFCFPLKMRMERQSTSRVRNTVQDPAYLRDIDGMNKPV
# Fructose-bisphosphate aldolase, sequence (P9WQA3 whole entry): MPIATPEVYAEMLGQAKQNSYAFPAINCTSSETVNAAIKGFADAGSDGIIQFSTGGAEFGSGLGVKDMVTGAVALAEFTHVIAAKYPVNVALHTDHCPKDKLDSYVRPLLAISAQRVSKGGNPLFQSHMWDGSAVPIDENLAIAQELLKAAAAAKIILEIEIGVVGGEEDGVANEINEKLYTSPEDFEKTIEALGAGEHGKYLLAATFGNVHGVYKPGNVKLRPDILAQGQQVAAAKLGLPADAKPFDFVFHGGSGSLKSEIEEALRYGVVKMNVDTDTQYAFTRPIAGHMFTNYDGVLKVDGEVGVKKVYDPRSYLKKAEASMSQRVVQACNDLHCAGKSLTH
# Cytochrome P450 3A4, sequence (P08684 whole entry): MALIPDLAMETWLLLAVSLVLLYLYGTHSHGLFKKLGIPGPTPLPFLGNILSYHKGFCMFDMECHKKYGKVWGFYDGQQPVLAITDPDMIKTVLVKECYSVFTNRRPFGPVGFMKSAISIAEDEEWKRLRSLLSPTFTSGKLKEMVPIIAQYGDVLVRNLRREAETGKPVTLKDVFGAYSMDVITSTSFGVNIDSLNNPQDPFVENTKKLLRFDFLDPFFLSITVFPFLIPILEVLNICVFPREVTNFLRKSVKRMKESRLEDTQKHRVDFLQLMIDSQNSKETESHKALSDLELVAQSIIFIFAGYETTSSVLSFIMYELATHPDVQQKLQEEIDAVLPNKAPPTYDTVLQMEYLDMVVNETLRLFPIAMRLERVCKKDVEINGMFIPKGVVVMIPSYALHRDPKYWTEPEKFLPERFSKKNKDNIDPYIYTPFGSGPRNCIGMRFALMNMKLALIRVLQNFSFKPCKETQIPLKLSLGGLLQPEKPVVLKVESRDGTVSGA
# Luciferin 4-monooxygenase, sequence (P08659 whole entry): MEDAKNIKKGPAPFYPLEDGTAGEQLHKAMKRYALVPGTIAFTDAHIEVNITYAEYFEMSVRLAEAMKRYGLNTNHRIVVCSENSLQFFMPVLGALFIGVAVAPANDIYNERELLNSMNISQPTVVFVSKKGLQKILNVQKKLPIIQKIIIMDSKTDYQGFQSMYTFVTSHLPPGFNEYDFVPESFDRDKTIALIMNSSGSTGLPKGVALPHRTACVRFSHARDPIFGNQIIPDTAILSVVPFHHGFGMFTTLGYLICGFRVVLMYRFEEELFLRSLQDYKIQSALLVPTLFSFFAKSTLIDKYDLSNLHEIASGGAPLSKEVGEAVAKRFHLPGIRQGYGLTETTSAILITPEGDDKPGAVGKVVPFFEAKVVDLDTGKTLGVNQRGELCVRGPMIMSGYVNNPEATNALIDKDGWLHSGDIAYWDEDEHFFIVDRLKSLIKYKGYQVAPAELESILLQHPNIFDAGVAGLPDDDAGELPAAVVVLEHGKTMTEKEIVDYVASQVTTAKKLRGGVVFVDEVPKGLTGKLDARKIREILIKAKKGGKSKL
# fMet-Leu-Phe receptor, sequence (P21462 whole entry): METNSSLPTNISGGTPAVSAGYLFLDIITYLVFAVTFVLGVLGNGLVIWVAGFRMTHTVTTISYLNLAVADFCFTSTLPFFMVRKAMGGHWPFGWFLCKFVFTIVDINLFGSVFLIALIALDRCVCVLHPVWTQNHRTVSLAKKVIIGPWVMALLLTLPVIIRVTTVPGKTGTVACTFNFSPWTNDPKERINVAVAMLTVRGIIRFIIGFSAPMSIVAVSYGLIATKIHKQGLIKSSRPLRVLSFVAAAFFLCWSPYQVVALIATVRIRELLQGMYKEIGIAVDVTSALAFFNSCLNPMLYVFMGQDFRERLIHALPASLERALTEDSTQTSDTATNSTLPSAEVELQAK
compound,measurement,setting,value
COc1ccc(-c2cc(=O)n(-c3nc4ccccc4[nH]3)[nH]2)cc1,EC50,[1],> 32 µM (inactive)
same,EC50,[2],> 32 µM (inactive)
same,EC50,[3],> 31.5 µM (inactive)
same,EC50,[4],> 91.2 µM (inactive)
same,EC50,[5],> 91.2 µM (inactive)
same,IC50,[6],> 32 µM (inactive)
same,IC50,[7],9.08 µM (active)
same,IC50,[8],> 32 µM
Nc1cc(N)c2c(c1)C(=O)c1ccccc1-2,IC50,[9],> 122 µM (inactive)
c1ccc(N2CCN(Cc3ccsc3)CC2)nc1,EC50,[10],92.4 µM (inactive)
same,EC50,[11],0.125 µM (active)
CC(=O)Nc1cc(-c2ccc(N(C)C)cc2)cn2c(-c3ccc(F)cc3)cnc12,IC50,[12],> 80 µM (inactive)
same,EC50,[13],> 9.91 µM (active)
COc1ccc(C2(C)NC(=O)N(CC(=O)NCCC3=CCCCC3)C2=O)cc1OC (stereo not given),IC50,[14],35.9 µM (inactive)
same,EC50,[15],> 112 µM (not active)
same,IC50,[16],35.9 µM (inactive)
same,EC50,[17],> 112 µM (not active)
same,IC50,[18],5.24 µM (active)
COCCCN1C(=O)C(O)=C(C(=O)c2ccc(OC)cc2C)C1c1cccnc1 (stereo not given),Ki,[19],> 66.7 µM (inactive)
same,AC50,[20],20 µM (inconclusive)
CCCc1cc(=O)oc2cc(OCC(=O)NCCc3ccc(S(N)(=O)=O)cc3)ccc12,IC50,[14],35.9 µM (inactive)
same,IC50,[16],35.9 µM (inactive)
same,IC50,[18],7.47 µM (active)
C(=C\c1ccc2nncn2c1)/c1ccccc1,IC50,[21],1.45 µM (active)
COC(=O)[C@]12CCCCC=C1N(Cc1ccccc1)C(=O)[C@H](CC(=O)NCCc1ccccc1OC)C2,IC50,[22],4.83 µM (active)
same,EC50,[23],2.49 µM (active)
same,EC50,[24],> 29.9 µM (inactive)
same,IC50,[25],27.7 µM (inactive)
CCOc1ccc(NC(=O)c2ccc3c(c2)N(C)CCS3)cc1,IC50,[26],> 67.6 µM (inactive)
same,IC50,[27],> 67.6 µM (inactive)
